Data on six compounds can be found in patent US20250236599A1, “LIPID NANOPARTICLES FOR OLIGONUCLEOTIDE DELIVERY” (ZIPHIUS NV, priority 2021, published 2025).

SMILES strings stand for the structures.

The nature of data set [1]: saRNA loading / encapsulation efficiency, Quant-IT RiboGreen assay. The note with it: LNP lipid:DOPE:Cholesterol:DMG-PEG 35:20:43.5:1.5, firefly luciferase saRNA. It counts as physicochemical. The protocol: The saRNA loading in LNP formulations was quantified using a Quant-IT RiboGreen assay (Thermo Fisher Scientific, Waltham, Massachusetts, USA) as previously described. 14 samples were diluted tenfold in 1x Tris HCL-EDTA (TE) buffer (10 mM Tris-HCL, 1 mM EDTA, pH 7.5) with or without 2% (v/v) Triton X-100 (Sigma-Aldrich, Saint Louis, Missouri, USA). Standard solutions were also prepared in 1xTE with or without 2% (v/v) Triton X-100 to account for any variation in fluorescence. The assay was performed according to the manufacturer's protocol. Samples were loaded on a black 96-well plate and analysed for fluorescence on a microplate reader (Tecan Infinite® 200 PRO) at an excitation of 485 nm and emission at 528 nm. Encapsulation efficiency was calculated between 80-100%.

Data set [2] in a line: LNP particle size, polydispersity index and charge by Zeta Sizer. In kind it is physicochemical. As to conditions: LNP lipid:DOPE:Cholesterol:DMG-PEG 35:20:43.5:1.5, firefly luciferase saRNA. The protocol:
Cationic lipids, DOPE, Cholesterol and DMG-PEG lipid were solubilized in ethanol or DMSO at a molar ratio of 35:20:43.5:1.5 and a concentration of 100:25:20:25 μg/μL for C12-200 or 170:25:20:25 μg/μL for the comparator lipids. Lipid nanoparticles (LNP) were prepared by targeting an N/P ratio of approximately 40/1 with saRNA. Briefly, the firefly luciferase saRNA of approximately 9659 nucleotides was diluted to 0.5 mg/mL in 5 mM citrate buffer, pH 4.5. Microfluidic mixer (Ignite from Precision Nanosystems, California, USA) was used to mix the lipid solution with the saRNA aqueous solution at a ratio of about 1:3 (vol/vol) with total flow rates above 10 ml/min. The ethanol was then removed, and the external buffer replaced with 10 mM TRIS-HCL, PH 7.4, by dialysis. Finally, the lipid nanoparticles were filtered through a 0.2 μm pore sterile filter. Lipid nanoparticle particle size was 50-150 nm diameter and polydispersity index (PI) of 0.1-0.4 as determined by Zeta Sizer (Malvern Panalytical, UK). The charge of the formulation was also measured by Zeta Sizer and ranged between 20 to −20 mV.

A short description of data set [3]: Weight evolution of the animals following administration of LNPs. It counts as in vivo. As to conditions: female SWISS mice. The protocol: (§1) Female SWISS mice (6 weeks old) were purchased from Janvier Laboratories (Paris, France) and kept in individually ventilated cages with access to food and water ad libitum. Mice were anesthetized with isoflurane (Zoetis, Louvain-La-Neuve, Belgium) (5% for induction and 2% for maintenance) and intramuscularly injected with a total of 1 μg in 100 μL Tris-HCL (50 μL per leg) LNP-formulated luciferase saRNA (for each group n=7). The expression of the luciferase induced bioluminescence was measured via non-invasive In vivo bioluminescent imaging (In vivo Imaging System (IVIS) Lumina III, Perkin Elmer, Waltham, Massachusetts, USA), 10 minutes after subcutaneous injection of […] of D-luciferin (GoldBio, Saint Louis, Missouri, USA, #LUCK-1G) were measured in day 0 (before injection), day 1, day 3, day 5, day 7, day 10, day 15 and day 20.

The subject of data set [4] is expression of the luciferase saRNA. The experiment in a line: In vivo bioluminescent imaging after intramuscular injection of LNP-formulated luciferase saRNA. The note with it: 1 μg LNP-formulated luciferase saRNA intramuscularly, female SWISS mice. The procedure: as §1
[5] abbreviates: Day 1, 1 μg LNP-formulated saRNA intramuscularly.
[6] abbreviates: Day 3, 1 μg LNP-formulated saRNA intramuscularly.
Setting [7] is: Day 5, 1 μg LNP-formulated saRNA intramuscularly.
[8] abbreviates: Day 7, 1 μg LNP-formulated saRNA intramuscularly.
Setting [9] is: Day 10, 1 μg LNP-formulated saRNA intramuscularly.
[10] abbreviates: Day 15, 1 μg LNP-formulated saRNA intramuscularly.
Setting [11] is: Day 20, 1 μg LNP-formulated saRNA intramuscularly.

On to `CCCCCCCCCCCCCCOC(=O)CCN(CCC(=O)OCCCCCCCCCCCCCC)CCN1CCN(CCN(CCC(=O)OCCCCCCCCCCCCCC)CCC(=O)OCCCCCCCCCCCCCC)CC1` [Comparator 1 (C1), reference compound], for which the “Encapsulation (%)” value in data set [1] was determined as 99.03%. The “Zetapotential (mV)” value in data set [2] is on record as 9.07 mV. Further, the “Polydispersity Index (PI)” value in data set [2] (N/P approx. 40/1) was 0.16. The “Z-average (nm)” value in data set [2] (N/P approx. 40/1) is 70.96 nm. Besides, the “Weight” value was 26.56 g in data set [3] (Day 0); 25.99 g in data set [3] (setting [5]); 27.21 g in data set [3] (setting [6]); 27.59 g in data set [3] (setting [7]); 27.09 g in data set [3] (setting [8]); 27.17 g in data set [3] (setting [9]). The “Weight” value in data set [3] (setting [10]) is on record as 29.43 g; in data set [3] (setting [11]) it was 30.11 g.
Turning to `CCCCCCCCC(CCCCCC)C(=O)OCCN(CCOC(=O)C(CCCCCC)CCCCCCCC)CCN1CCN(CCN(CCOC(=O)C(CCCCCC)CCCCCCCC)CCOC(=O)C(CCCCCC)CCCCCCCC)CC1` (centres unmarked) [Compound 9-35, ((piperazine-1,4-diylbis(ethane-2,1-diyl))bis(azanetriyl))tetrakis(ethane-2,1-diyl)tetrakis(2-hexyldecanoate)], the “Bioluminescence expression of LNPs” value in data set [4] (Day 1) worked out at 8.83E+05; in data set [4] (Day 3), 9.99E+07; in data set [4] (Day 5) it was 5.92E+07; in data set [4] (Day 7), 6.45E+07; in data set [4] (Day 10), 5.62E+07; in data set [4] (Day 15), 6.82E+05. Further, in data set [4] (Day 20), the “Bioluminescence expression of LNPs” value amounted to 2.44E+05. Also, the “Weight” value is listed as 30.01 g in data set [3] (Day 0); 30.06 g in data set [3] (setting [5]); 30.43 g in data set [3] (setting [6]); 29.87 g in data set [3] (setting [7]); 30.30 g in data set [3] (setting [8]); 31.23 g in data set [3] (setting [9]). Further, the “Weight” value was 32.13 g in data set [3] (setting [10]) and 32.23 g in data set [3] (setting [11]).
Regarding `CCCCCCC(CCCC)C(=O)NCCCCCCN(CCCCCCNC(=O)C(CCCC)CCCCCC)CCN1CCN(CCN(CCCCCCNC(=O)C(CCCC)CCCCCC)CCCCCCNC(=O)C(CCCC)CCCCCC)CC1` (centres unmarked) [Compound 9-41, N, N', N″, N″'-(((piperazine-1,4-diylbis(ethane-2,1-diyl))bis(azanetriyl))tetrakis(hexane-6,1-diyl))tetrakis(2-butyloctanamide)], the “Weight” value in data set [3] (Day 0) is 29.19 g; in data set [3] (setting [5]), 29.19 g; in data set [3] (setting [6]), 29.43 g; in data set [3] (setting [7]), 29.21 g; in data set [3] (setting [8]) it was 30.44 g; in data set [3] (setting [9]), 31.06 g. The “Weight” value in data set [3] (setting [10]) was 31.26 g; in data set [3] (setting [11]) it was 31.77 g.
For `CCCCCCC(CCCC)C(=O)OCCCCCCN(CCCCCCOC(=O)C(CCCC)CCCCCC)CCN(CCCCCCOC(=O)C(CCCC)CCCCCC)CCN1CCN(CCN(CCCCCCOC(=O)C(CCCC)CCCCCC)CCCCCCOC(=O)C(CCCC)CCCCCC)CC1` (centres unmarked) [Compound 9-28, ((2-(4-(2-((2-(bis(6-((2-butyloctanoyl)oxy)hexyl)amino)ethyl) (6-((2-butyloctanoyl)oxy)hexyl)amino)ethyl)piperazin-1-yl)ethyl)azanediyl)bis(hexane-6,1-diyl)bis(2-butyloctanoate)], the “Bioluminescence expression of LNPs” value in data set [4] (Day 1) came out at 1.01E+08; in data set [4] (Day 3), 8.67E+08; in data set [4] (Day 5), 9.45E+08; in data set [4] (Day 7) it was 5.65E+08; in data set [4] (Day 10), 2.08E+06; in data set [4] (Day 15) it was 8.15E+04. Also, the “Bioluminescence expression of LNPs” value in data set [4] (Day 20) was 3.35E+04. For the same compound, the “Weight” value in data set [3] (Day 0) is reported as 28.36 g; in data set [3] (setting [5]) it was 27.19 g; in data set [3] (setting [6]), 29.44 g; in data set [3] (setting [7]), 29.17 g; in data set [3] (setting [8]) it was 29.37 g; in data set [3] (setting [9]), 29.39 g. Also, the entries for the “Weight” value in data set [3] (setting [10]) and in data set [3] (setting [11]) were 31.43 g and 32.46 g, respectively.
With `CCCCCCCCC(CCCCCC)C(=O)OCCCCCCN(CCCCCCOC(=O)C(CCCCCC)CCCCCCCC)CCN(CCCCCCOC(=O)C(CCCCCC)CCCCCCCC)CCN1CCN(CCN(CCCCCCOC(=O)C(CCCCCC)CCCCCCCC)CCCCCCOC(=O)C(CCCCCC)CCCCCCCC)CC1` (centres unmarked) [Compound 9-31, ((2-(4-(2-((2-(bis(6-((2-hexyldecanoyl)oxy)hexyl)amino)ethyl) (6-((2-hexyldecanoyl)oxy)hexyl)amino)ethyl)piperazin-1-yl)ethyl)azanediyl)bis (hexane-6,1-diyl)bis(2-hexyldecanoate)], the “Bioluminescence expression of LNPs” value in data set [4] (Day 1) came to 3.10E+07; in data set [4] (Day 3), 2.74E+08; in data set [4] (Day 5), 5.31E+08; in data set [4] (Day 7), 2.16E+08; in data set [4] (Day 10), 2.22E+06; in data set [4] (Day 15) it was 2.46E+05. The “Bioluminescence expression of LNPs” value in data set [4] (Day 20) is reported as 2.71E+04. The “Weight” value in data set [3] (Day 0) worked out at 27.70 g; in data set [3] (setting [5]), 26.17 g; in data set [3] (setting [6]), 28.46 g; in data set [3] (setting [7]) it was 27.66 g; in data set [3] (setting [8]), 28.29 g; in data set [3] (setting [9]), 28.27 g. Further, the “Weight” value is listed as 29.76 g in data set [3] (setting [10]) and 30.90 g in data set [3] (setting [11]).
As for `CCCCCCC(CCCC)C(=O)NCCCCCCN(CCCCCCNC(=O)C(CCCC)CCCCCC)CCN(CCCCCCNC(=O)C(CCCC)CCCCCC)CCN1CCN(CCN(CCCCCCNC(=O)C(CCCC)CCCCCC)CCCCCCNC(=O)C(CCCC)CCCCCC)CC1` (centres unmarked) [Compound 9-40, N,N'-(((2-(4-(2-((2-(bis(6-(2-butyloctanamido)hexyl)amino)ethyl) (6-(2-butyloctanamido)hexyl)amino)ethyl)piperazin-1-yl)ethyl)azanediyl)bis(hexane-6,1-diyl))bis(2-butyloctanamide)], the “Bioluminescence expression of LNPs” value in data set [4] (Day 1) turned out to be 6.07E+07; in data set [4] (Day 3), 6.79E+08; in data set [4] (Day 5) it was 1.14E+09; in data set [4] (Day 7), 8.88E+08; in data set [4] (Day 10) it was 2.00E+07; in data set [4] (Day 15), 1.32E+06. Also, the “Bioluminescence expression of LNPs” value in data set [4] (Day 20) came out at 2.64E+05. In addition, the “Weight” value is 30.11 g in data set [3] (Day 0); 29.54 g in data set [3] (setting [5]); 29.41 g in data set [3] (setting [6]); 29.19 g in data set [3] (setting [7]); 30.31 g in data set [3] (setting [8]); 30.51 g in data set [3] (setting [9]). The “Weight” value was determined as 31.09 g in data set [3] (setting [10]) and 32.37 g in data set [3] (setting [11]).
